The values below come from US11220527B2, “Peptides derived from the propeptide NTSR3 and their use in the treatment of depression” (CENTRE NATIONAL DE LA RECHERCHE SCIENTIFIQUE, priority 2016, dated 2022).

Where no end group is shown, it is not given here.

One experiment relates to PSD-95 protein. The experiment in a line: Synaptogenesis: PSD-95 expression in cortical neurons by Western blot. The experiment is classed as cell-based, mouse C57BI/6J. The following applies: 1 μM, 0-36 hours, normalized to ß-actin, FIG. 6. As for the experimental part: Pregnant female C57BI/6J mice (20-25 g, Janvier Labs, St Berthevin, France) were anesthetized by inhalation of 2% isoflurane mixed with 30% oxygen and 70% nitrous oxide, and then sacrificed. The embryos (E14) were removed and the cerebral cortex was dissected in PBS containing 1% glucose. Neurons were prepared from cerebral cortex by mechanical dissociation, as described in Brewer and Torricelli, 2007 [26]. The dissociated neurons were distributed in poly-L-lysine treated plates and cultured for up to 10 days in neurobasal medium containing 2% B27 (Invitrogen, Fisher Scientific, Illkirch, France) and 50 μg/ml gentamycin (Sigma France), at 37° C. under 5% CO2. […]
Cortical neurons treated with peptides G/A-PE(22-28) and biotinylated G/A-PE(22-28) for different durations (0, 5, 8, 24 and 36 hours) were homogenized in Laemmli buffer and analyzed using 10% SDS-Page gels. […] The ß-actin contents were determined after extraction using a 1/5000 dilution of anti-β-actin antibodies (Santa Cruz mouse monoclonal antibody, dilution 1/5000). […] The proteins were detected with ECL Plus detection reagents (Amersham Biosciences) using the LAS-3000 imaging system (Fujifilm, Düsseldorf, Germany). The relative intensities of each labeled band were analyzed by densitometric scanning using ImageJ software (Wayne Rasband, National Institute of Health, Bethesda, Md., USA). […]

In experiment [1] the test system is BrdU-positive cells of the dentate gyrus of the hippocampus. Put plainly: Hippocampal neurogenesis by BrdU immunohistochemistry. The format is in vivo. The note with it: mice, four days of treatment, FIG. 5. As for the experimental part: BrdU (5-bromo-2′-deoxyuridine) is a synthetic nucleoside analogous to thymidine. It is incorporated during DNA replication during phase S (chromosome duplication during interphase) of the cells in division. Injection of BrdU makes it possible to visualize the cells in division of the tissue to be analyzed by means of immunological labeling. In the present study, the hippocampal neurogenesis of the mice was evaluated after treatment with spadin or the different analogs.
After the behavioral tests, the mice were injected with BrdU at a final concentration of 120 mg/kg intraperitoneally, according to the modified protocol of Beauquis, J. et al. (Eur J Neurosci 23, 1539-1546, 2007). Four injections of 300 μl at 10 mg/ml, spaced two hours apart, were performed. 24 hours after the injections, the mice were anesthetized with pentobarbital (100 mg/kg) and then perfused intracardially. During the intracardiac perfusion, physiological saline was administered to remove all blood from the body of the mice, and then 4% paraformaldehyde (PFA) was perfused to fix the organs. Post-fixation in 4% PFA was also performed overnight. The brains of the mice were cut with a vibratome (Leica), which allowed 40 μm floating frontal sections to be obtained. The sections selected for the immunological reaction were those ranging from bregma 3.3 to 5.3. Eight sections were selected with a regular spacing, allowing the entire hippocampus to be covered while remaining homogeneous from one brain to another.
The immunological reaction was performed by incubating an anti-BrdU primary antibody (BD Pharmingen, 1/8000), with the brain sections, overnight at 4° C. The brain sections were then washed in PBS (Phosphate Buffered Saline) and incubated for two hours with the secondary antibody (biotinylated goat anti-mouse antibody, Vector laboratories, 1/400). […]
The sections were then mounted on slides and fixed with Entellan. BrdU-positive cells of the dentate gyrus of the hippocampus were counted in both hemispheres of each brain. […]

As to AVSWGLR [G/A-PE(22-28), AVSWGLR], in the experiment with PSD-95 protein, the “PSD-95 synaptic protein expression (synaptogenesis)” value is given as “increased PSD-95 synaptic protein expression”. Further, the “neurogenesis (BrdU-positive cells of the hippocampus)” value in experiment [1] is reported as “increase neurogenesis more strongly than peptide PE(22-28)”; in experiment [1] (listed as G/APE(22-28)), “capable of inducing an increase in neurogenesis”.
